Inhibition data for three compounds are collected here from US20220009920A1 (GB005, Inc., priority 2020, published 2022).

Test in all cases: Large panel kinase profiling
Format in all cases: biochemical
Conditions in all cases: 1 μM test article, 1 mM ATP

Test [1] concerns the target T1, PRKD3 (Homo sapiens, UniProt O94806).
T1 sequence (O94806 1-890): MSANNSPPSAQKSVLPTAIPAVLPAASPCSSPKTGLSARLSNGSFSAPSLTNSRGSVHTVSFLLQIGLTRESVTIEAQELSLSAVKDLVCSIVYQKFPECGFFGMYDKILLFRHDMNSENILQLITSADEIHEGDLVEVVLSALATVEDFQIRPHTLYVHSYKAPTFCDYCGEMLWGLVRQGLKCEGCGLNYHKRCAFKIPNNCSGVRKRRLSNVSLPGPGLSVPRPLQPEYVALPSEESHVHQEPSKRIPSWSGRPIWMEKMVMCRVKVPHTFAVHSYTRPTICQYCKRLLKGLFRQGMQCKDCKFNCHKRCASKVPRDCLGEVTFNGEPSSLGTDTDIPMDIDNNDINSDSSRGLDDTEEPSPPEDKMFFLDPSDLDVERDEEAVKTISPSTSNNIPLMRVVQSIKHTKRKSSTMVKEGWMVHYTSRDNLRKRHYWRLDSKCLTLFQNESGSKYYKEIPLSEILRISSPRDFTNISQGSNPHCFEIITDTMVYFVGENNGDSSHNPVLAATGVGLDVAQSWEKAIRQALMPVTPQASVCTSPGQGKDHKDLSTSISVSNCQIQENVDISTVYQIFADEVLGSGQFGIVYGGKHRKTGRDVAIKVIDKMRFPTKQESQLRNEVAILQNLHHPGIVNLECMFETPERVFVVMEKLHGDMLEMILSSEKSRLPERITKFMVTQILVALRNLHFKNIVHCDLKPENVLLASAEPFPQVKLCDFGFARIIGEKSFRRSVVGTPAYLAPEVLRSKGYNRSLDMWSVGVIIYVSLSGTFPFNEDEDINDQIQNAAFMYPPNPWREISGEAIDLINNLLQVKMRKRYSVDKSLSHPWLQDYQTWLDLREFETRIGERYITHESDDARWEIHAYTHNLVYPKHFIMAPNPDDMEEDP
The procedure, abridged: (§1)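 One compound concentration (1 μM) was screened against each kinase at 1 mM ATP using PhosphoSens CSox-Sensor detection, at 30° C., with fluorescence read every 1 min (Ex 360 nm/Em 485 nm).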

Test [2] has as its target T2, MAPK9/JNK2 (Homo sapiens, UniProt P45984).
T2 construct: AssayQuant Technologies, Inc. (service provider)
The procedure, abridged:
as §1

In test [3] the target is T3, PHKG2 (Homo sapiens, UniProt P15735).
T3 sequence (P15735 1-406): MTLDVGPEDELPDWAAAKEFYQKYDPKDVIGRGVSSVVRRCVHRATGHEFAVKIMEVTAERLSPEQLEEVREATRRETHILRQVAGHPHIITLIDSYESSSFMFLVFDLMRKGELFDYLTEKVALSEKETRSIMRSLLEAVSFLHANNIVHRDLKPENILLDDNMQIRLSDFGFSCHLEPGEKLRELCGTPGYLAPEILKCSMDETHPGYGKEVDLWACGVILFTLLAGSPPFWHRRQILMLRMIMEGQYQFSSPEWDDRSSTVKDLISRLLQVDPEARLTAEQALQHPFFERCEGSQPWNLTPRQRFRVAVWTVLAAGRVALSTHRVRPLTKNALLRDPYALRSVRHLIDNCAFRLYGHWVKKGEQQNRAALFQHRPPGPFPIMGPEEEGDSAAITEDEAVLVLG
The procedure, abridged: as §1

Test [4] has as its target T4, MYLK2 (Homo sapiens, UniProt Q9H1R3).
T4 construct: AssayQuant Technologies, Inc. (assay service)
The procedure, abridged:
as §1

Test [5] addresses T5, CDK18 (Homo sapiens, UniProt Q07002).
T5 construct: AssayQuant Technologies, Inc. (ran the panel)
The procedure, abridged: as §1

Test [6] concerns the target PRKAA2/AMPK211 (Homo sapiens, UniProt P54646). The procedure, abridged:
as §1

The target in test [7] is T6, TAOK1 (Homo sapiens, UniProt Q7L7X3).
T6 construct: AssayQuant Technologies, Inc. (contract assay)
T6 sequence (Q7L7X3 1-1001): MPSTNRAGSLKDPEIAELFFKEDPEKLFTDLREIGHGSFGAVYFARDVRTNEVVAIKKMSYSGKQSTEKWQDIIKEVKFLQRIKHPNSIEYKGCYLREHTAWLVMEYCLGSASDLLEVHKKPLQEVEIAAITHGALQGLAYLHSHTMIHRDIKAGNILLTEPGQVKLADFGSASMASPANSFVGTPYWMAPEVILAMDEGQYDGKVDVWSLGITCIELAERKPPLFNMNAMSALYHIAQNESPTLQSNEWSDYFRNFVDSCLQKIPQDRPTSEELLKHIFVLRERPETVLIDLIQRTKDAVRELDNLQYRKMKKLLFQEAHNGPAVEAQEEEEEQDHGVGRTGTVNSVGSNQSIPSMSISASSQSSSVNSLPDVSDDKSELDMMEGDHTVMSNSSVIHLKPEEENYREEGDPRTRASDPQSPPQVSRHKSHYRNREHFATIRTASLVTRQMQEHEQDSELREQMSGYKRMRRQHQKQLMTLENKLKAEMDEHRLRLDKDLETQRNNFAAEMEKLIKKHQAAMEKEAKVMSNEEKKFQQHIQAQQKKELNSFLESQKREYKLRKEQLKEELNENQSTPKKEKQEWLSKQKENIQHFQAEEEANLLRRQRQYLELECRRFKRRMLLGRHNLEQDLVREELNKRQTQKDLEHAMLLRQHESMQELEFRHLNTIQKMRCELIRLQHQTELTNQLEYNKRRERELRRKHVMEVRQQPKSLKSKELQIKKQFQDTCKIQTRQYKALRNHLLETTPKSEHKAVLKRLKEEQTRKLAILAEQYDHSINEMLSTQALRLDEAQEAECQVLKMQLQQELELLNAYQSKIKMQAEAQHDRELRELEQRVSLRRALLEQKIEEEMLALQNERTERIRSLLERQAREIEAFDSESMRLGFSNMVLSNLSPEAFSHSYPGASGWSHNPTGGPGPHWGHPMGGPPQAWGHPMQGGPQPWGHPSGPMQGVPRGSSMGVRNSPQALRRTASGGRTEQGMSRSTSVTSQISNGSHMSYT
The procedure, abridged: as §1

Chain of PRKAA2/AMPK211 (P54646 whole entry, species assumed): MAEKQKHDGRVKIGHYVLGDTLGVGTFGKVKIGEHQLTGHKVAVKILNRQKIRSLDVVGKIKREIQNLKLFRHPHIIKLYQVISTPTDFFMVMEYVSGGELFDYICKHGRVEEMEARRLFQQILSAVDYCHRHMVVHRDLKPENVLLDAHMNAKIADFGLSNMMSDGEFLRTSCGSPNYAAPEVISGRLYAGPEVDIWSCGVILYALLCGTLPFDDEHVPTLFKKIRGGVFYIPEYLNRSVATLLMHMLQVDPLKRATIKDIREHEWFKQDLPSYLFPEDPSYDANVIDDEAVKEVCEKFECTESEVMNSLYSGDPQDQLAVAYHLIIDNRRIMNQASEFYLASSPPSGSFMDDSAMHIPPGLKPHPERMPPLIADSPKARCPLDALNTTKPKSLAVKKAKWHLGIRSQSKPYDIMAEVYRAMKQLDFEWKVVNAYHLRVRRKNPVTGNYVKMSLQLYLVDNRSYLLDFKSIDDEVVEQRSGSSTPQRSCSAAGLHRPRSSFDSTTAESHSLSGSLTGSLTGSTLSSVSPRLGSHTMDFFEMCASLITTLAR
Chain of PRKAA2/AMPK211 (Q9Y478 whole entry partner, species assumed): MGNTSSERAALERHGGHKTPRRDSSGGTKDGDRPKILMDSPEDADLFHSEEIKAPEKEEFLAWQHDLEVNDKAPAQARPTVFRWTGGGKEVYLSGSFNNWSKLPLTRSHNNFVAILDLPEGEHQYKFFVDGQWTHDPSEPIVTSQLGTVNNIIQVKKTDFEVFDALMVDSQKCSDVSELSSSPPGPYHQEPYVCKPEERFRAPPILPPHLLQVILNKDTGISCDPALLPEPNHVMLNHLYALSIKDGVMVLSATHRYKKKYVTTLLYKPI
Chain of PRKAA2/AMPK211 (P54619 whole entry partner, species assumed): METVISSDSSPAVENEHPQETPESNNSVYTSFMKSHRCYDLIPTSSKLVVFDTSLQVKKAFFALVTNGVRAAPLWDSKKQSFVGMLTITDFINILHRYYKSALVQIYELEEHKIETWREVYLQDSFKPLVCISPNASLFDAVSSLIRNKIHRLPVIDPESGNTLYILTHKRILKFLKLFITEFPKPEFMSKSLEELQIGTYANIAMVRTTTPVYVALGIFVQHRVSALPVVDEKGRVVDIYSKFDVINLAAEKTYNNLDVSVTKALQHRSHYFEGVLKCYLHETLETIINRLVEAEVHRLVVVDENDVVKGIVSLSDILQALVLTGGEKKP
T5 sequence (Q07002 whole entry, species assumed): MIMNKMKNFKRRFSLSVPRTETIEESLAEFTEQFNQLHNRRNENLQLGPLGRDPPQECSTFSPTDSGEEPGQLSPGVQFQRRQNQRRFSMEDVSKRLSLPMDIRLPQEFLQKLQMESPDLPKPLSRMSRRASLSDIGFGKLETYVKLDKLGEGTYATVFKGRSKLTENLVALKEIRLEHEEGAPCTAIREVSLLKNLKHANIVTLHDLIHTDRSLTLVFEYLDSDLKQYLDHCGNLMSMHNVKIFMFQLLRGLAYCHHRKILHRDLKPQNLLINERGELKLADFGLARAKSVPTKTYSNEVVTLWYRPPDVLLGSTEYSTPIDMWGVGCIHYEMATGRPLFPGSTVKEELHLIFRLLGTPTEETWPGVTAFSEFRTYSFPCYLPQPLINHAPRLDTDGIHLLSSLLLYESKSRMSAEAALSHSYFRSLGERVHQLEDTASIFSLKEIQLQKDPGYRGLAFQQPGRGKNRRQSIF
T5 sequence (Q8ND76 whole entry partner, species assumed): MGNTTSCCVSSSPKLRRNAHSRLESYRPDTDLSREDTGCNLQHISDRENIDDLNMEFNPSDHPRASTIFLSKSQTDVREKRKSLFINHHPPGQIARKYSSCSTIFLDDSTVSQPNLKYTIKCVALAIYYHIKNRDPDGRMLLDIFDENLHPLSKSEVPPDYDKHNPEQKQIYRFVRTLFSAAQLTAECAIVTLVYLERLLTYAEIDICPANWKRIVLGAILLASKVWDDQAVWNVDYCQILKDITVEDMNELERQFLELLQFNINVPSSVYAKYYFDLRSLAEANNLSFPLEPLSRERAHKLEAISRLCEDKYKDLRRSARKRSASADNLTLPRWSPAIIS
T2 sequence (P45984 whole entry): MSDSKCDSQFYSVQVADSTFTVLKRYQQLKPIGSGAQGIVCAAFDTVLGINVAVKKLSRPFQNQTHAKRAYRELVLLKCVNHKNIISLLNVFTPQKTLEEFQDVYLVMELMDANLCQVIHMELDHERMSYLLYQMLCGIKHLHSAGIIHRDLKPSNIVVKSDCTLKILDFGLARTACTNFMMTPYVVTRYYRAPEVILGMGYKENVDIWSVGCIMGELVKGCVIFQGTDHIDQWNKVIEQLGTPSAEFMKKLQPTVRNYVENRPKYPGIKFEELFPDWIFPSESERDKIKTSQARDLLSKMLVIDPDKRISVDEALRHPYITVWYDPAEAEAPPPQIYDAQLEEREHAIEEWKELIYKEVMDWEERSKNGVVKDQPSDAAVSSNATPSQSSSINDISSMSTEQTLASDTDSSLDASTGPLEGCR

Regarding `C=CC(=O)N1CCC[C@@H](c2c(F)cc(C(N)=O)c3[nH]c4c(c23)CCC4)C1` [Compound 10-2, (S)-8-(1-acryloylpiperidin-3-yl)-7-fluoro-1,2,3,4-tetrahydrocyclo-penta[b]indole-5-carboxamide], the inhibition at 1 µM was -65.4% in test [1]; 3.8% in test [2]; 75% in test [3]; -33.6% in test [4]; 2% in test [5]; 36.6% in test [6]. For the same compound, the inhibition at 1 µM in test [7] is 11.1%.

Take `C=CC(=O)N1CCCC(c2c(F)cc(C(N)=O)c3[nH]c4c(c23)CCCCC4)C1` (single isomer, unassigned) [Compound 5-6]: the inhibition at 1 µM is 4.4% in test [1]; -6.3% in test [2]; 10.1% in test [3]; 16.8% in test [4]; 19% in test [5]; -24.4% in test [6]. The inhibition at 1 µM in test [7] is 11.9%.

`C=CC(=O)N1CCC[C@@H](c2c(F)cc(C(N)=O)c3[nH]c4c(c23)CC2(CC4)CC2)C1` [Compound 6-2, (S)-5-(1-acryloylpiperidin-3-yl)-6-fluoro-1,2,4,9-tetrahydrospiro[carbazole-3,1′-cyclopropane]-8-carboxamide]: the inhibition at 1 µM in test [1] is -62.4%; in test [2], 19.7%; in test [3] it was 64.5%; in test [4] it was -28.4%; in test [5] it was -15%; in test [6], 28.8%. The inhibition at 1 µM in test [7] was determined as 9.5%.
